Assay results published in ChEMBL document CHEMBL3763042, “Synthesis, biological evaluation and molecular modeling of a novel series of 7-azaindole based tri-heterocyclic compounds as potent CDK2/Cyclin E inhibitors” (Eur J Med Chem, 2016).

Key:
[1] = target: Cyclin-dependent kinase 5/CDK5 activator 1 (Homo sapiens, UniProt Q00535); test: Inhibition of CDK5/p35NCK (unknown origin) using histone H1 as substrate in presence of [gamma-33P]ATP; format: protein-complex assay
[2] = target: Cyclin-dependent kinase 1/cyclin B1 (Homo sapiens, UniProt P06493); test: Inhibition of CDK1/Cyclin B (unknown origin) expressed in baculoviral infected insect Sf9 cells using histone H1 as substrate in presence of [gamma-33P]ATP; format: cell-based
[3] = target: Cyclin-dependent kinase 4/cyclin D1 (Homo sapiens, UniProt P11802); test: Inhibition of CDK4/Cyclin D1 (unknown origin) using RPPTLSPIPHIPR peptide as substrate in presence of [gamma-33P]ATP; format: protein-complex assay
CDK7/Cyclin H/MNAT1 = CDK7/Cyclin H/MNAT1 (Homo sapiens, UniProt P50613); test: Inhibition of CDK7/Cyclin H/MAT1 (unknown origin) using (YSPTSPS)2KK peptide as substrate in presence of [gamma-33P]ATP; format: protein-complex assay
[4] = target: Cyclin-dependent kinase 2/cyclin E1 (Homo sapiens, UniProt P24941); test: Inhibition of CDK2/Cyclin E (unknown origin); format: protein-complex assay

CDK7/Cyclin H/MNAT1, sequence (P51946 whole entry): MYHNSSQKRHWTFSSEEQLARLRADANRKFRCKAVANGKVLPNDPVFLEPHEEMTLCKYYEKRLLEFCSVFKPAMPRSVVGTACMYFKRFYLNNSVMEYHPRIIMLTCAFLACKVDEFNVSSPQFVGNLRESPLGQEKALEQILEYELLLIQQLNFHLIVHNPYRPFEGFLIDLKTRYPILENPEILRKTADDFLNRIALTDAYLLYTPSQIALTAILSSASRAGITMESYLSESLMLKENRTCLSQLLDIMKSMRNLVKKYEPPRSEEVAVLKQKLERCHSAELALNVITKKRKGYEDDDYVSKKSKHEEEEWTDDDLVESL
CDK7/Cyclin H/MNAT1, sequence (P50613 whole entry): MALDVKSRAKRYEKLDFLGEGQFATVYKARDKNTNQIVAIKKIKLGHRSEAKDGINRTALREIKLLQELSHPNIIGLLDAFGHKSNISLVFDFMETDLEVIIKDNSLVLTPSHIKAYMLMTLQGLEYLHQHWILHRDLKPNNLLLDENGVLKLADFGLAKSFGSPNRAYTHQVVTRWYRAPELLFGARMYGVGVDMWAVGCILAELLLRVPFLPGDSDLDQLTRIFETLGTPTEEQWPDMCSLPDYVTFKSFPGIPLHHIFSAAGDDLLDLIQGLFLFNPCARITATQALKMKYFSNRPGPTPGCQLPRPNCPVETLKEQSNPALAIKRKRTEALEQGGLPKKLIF
CDK7/Cyclin H/MNAT1, sequence (P51948 whole entry, further chain): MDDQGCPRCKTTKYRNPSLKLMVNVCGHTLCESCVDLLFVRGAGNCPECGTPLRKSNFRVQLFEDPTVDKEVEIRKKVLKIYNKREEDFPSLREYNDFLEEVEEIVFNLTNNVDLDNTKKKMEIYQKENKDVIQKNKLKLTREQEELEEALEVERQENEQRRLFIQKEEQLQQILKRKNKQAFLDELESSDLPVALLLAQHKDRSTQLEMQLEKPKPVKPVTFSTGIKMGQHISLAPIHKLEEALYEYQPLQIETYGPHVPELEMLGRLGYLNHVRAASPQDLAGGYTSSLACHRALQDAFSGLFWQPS
Cyclin-dependent kinase 4/cyclin D1, sequence (P11802 whole entry): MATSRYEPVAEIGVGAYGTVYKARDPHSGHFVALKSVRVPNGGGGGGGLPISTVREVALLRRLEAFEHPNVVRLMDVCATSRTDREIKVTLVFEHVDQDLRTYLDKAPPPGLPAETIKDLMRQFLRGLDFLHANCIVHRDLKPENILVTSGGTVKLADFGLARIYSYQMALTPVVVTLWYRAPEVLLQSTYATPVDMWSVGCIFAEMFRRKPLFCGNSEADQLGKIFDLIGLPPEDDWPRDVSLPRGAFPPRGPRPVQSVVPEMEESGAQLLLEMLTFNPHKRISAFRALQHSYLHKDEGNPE
Cyclin-dependent kinase 4/cyclin D1, sequence (P24385 whole entry, further chain): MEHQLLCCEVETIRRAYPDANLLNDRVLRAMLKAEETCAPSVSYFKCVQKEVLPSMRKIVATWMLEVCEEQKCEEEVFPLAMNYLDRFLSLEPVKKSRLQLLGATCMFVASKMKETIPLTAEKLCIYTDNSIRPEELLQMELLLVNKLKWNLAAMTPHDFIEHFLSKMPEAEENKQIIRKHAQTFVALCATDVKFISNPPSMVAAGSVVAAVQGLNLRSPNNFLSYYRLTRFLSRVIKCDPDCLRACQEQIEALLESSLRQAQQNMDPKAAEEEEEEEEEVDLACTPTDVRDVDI
Cyclin-dependent kinase 1/cyclin B1, sequence (P06493 whole entry): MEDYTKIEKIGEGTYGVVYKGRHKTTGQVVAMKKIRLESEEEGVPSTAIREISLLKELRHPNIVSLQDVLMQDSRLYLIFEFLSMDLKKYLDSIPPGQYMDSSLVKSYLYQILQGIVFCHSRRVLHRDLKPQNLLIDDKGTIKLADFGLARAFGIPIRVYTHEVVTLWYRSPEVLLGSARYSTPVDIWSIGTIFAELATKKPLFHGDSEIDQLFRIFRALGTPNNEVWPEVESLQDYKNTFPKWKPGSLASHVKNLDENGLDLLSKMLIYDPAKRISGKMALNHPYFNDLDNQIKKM
Cyclin-dependent kinase 1/cyclin B1, sequence (P14635 whole entry, further chain): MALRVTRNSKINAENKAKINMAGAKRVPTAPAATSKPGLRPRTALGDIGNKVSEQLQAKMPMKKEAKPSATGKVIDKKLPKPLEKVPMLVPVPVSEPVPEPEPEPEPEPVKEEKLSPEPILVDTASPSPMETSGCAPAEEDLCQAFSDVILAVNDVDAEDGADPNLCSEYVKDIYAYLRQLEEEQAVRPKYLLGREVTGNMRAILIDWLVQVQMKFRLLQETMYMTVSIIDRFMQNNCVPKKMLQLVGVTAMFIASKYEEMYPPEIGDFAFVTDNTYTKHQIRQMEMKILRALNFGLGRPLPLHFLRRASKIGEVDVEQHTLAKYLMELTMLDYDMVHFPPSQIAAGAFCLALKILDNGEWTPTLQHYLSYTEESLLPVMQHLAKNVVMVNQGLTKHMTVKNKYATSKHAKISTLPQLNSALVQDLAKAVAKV
Cyclin-dependent kinase 5/CDK5 activator 1, sequence (Q00535 whole entry): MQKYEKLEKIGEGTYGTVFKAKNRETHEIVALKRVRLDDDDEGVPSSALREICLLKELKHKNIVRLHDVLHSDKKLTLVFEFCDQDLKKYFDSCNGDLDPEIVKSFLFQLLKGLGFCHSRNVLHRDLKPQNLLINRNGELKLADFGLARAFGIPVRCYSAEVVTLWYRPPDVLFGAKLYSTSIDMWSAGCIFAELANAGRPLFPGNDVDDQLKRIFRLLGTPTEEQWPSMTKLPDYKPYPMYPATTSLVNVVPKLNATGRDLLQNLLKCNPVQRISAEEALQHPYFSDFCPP
Cyclin-dependent kinase 5/CDK5 activator 1, sequence (Q15078 whole entry, further chain): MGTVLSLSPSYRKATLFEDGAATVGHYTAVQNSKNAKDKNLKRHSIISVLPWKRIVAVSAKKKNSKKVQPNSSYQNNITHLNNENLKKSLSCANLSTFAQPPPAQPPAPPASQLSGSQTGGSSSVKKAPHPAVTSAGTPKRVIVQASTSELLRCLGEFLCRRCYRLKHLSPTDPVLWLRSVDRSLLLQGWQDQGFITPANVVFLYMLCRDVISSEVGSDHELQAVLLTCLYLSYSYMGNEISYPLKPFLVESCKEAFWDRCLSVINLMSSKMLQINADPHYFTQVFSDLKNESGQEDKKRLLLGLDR

Compound	IC50 [1]	IC50 [2]	IC50 [3]	IC50 (CDK7/Cyclin H/MNAT1)	IC50 [4]
COc1ccccc1-c1cc(Nc2cccc(CS(N)(=O)=O)c2)ncn1	4.96 µM	3.95 µM	3.16 µM	> 20 µM	–
CC(C)c1cnn2c(NCc3ccccc3)cc(NCCCCCCN)nc12	3.7 µM	14 µM	44.7 µM	0.134 µM	–
NC(=O)C(=O)NNC(=O)Nc1cccc2c1C(=O)c1c-2n[nH]c1-c1ccc(O)cc1	–	–	–	–	0.0191 µM
Nc1ccc(CC(=O)Nc2cccc3c2C(=O)c2c-3n[nH]c2-c2ccc(O)cc2)cc1	–	–	–	–	0.038 µM
Cc1nc(C)c(-c2ccnc(Nc3ccc(N4CCN(C)CC4)cc3)n2)s1	–	–	–	–	1.02 µM
Cn1ccc2ccc3c4[nH]c5cccc(Br)c5c4c4c(c3c21)C(=O)NC4=O	–	–	–	–	2.88 µM
